Data reported in ChEMBL document CHEMBL5257131, “Quantum Annealing Designs Nonhemolytic Antimicrobial Peptides in a Discrete Latent Space” (ACS Med Chem Lett, 2023).
Peptide text beside a SMILES is read from it.

How the values were obtained:
Escherichia coli = experiment: Antimicrobial activity against Escherichia coli assessed as inhibition of microbial growth incubated for 26 hrs by micro-dilution test; format: functional
[1] = Hemolytic activity in rabbit RBC assessed as hemolysis at 100 uM incubated for 6 hrs by Uv-vis spectrophotometric analysis; format: toxicity, cell-based, Oryctolagus cuniculus; conditions: erythrocyte
[2] = Hemolytic activity in human erythrocytes assessed as hemolysis at 1 uM incubated for 1 hrs by spectrophotometric analysis relative to control; format: toxicity, cell-based, Erythrocyte; conditions: read-out: Activity

Compound | MIC (Escherichia coli) | Activity [1] | hemolysis at 1 h, 1 µM [2]
CC(C)C[C@H](NC(=O)[C@H](CC(N)=O)NC(=O)[C@H](CCCCN)NC(=O)[C@H](CC(C)C)NC(=O)[C@@H](NC(=O)[C@H](CCCCN)NC(=O)[C@H](Cc1ccccc1)NC(=O)CN)[C@@H](C)O)C(=O)N[C@@H](C)C(=O)N[C@@H](CCCCN)C(=O)N[C@@H](CCCCN)C(=O)N[C@H](C(=O)N[C@@H](C)C(=O)N[C@@H](CCCCN)C(=O)N[C@@H](CCCCN)C(=O)N[C@H](C(=O)N[C@@H](CC(C)C)C(=O)N[C@@H](CCCCN)C(=O)N[C@@H](C)C(=O)N[C@H](C(=O)N[C@@H](CCCNC(=N)N)C(=O)O)C(C)C)C(C)C)C(C)C (H-GFKTLKNLAKKVAKKVLKAVR-OH) | 6.25 µg/mL | Non-Toxic | 
CC[C@H](C)[C@H](NC(=O)CN)C(=O)NCC(=O)N[C@@H](C)C(=O)N[C@H](C(=O)N[C@@H](CC(C)C)C(=O)N[C@@H](CCCCN)C(=O)N[C@H](C(=O)N[C@@H](CC(C)C)C(=O)N[C@H](C(=O)N[C@H](C(=O)NCC(=O)N[C@@H](CC(C)C)C(=O)N1CCC[C@H]1C(=O)N[C@@H](C)C(=O)N[C@@H](CC(C)C)C(=O)N[C@H](C(=O)N[C@@H](CO)C(=O)N[C@@H](Cc1c[nH]c2ccccc12)C(=O)N[C@H](C(=O)N[C@@H](CCCCN)C(=O)N[C@@H](CCCNC(=N)N)C(=O)N[C@@H](CCCCN)C(=O)N[C@@H](CCCNC(=N)N)C(=O)N[C@@H](CCC(N)=O)C(=O)N[C@@H](CCC(N)=O)C(N)=O)[C@@H](C)CC)[C@@H](C)CC)[C@@H](C)O)[C@@H](C)O)C(C)C)C(C)C [MELITTIN] |  |  | 90%
CC[C@H](C)[C@H](NC(=O)CNC(=O)[C@H](CCCCN)NC(=O)[C@H](C)NC(=O)[C@@H](NC(=O)[C@H](CCCCN)NC(=O)[C@H](CCCCN)NC(=O)[C@H](CC(C)C)NC(=O)[C@@H](NC(=O)[C@@H](NC(=O)[C@@H](NC(=O)[C@H](CC(C)C)NC(=O)CN)C(C)C)[C@@H](C)O)C(C)C)C(C)C)C(=O)N[C@H](C(=O)N[C@@H](CCCCN)C(=O)N[C@H](C(=O)N[C@@H](C)C(=O)N[C@@H](CO)C(=O)N[C@@H](CCCCN)C(=O)N[C@H](C(=O)NCC(=O)N[C@@H](CO)C(=O)N[C@@H](CCCCN)C(=O)N[C@@H](CCC(=O)O)C(=O)N[C@@H](CC(C)C)C(=O)O)C(C)C)[C@@H](C)O)C(C)C (H-GLVTVLKKVAKGIVKTASKVGSKEL-OH) | > 100 µg/mL |  | 
CC1(C)S[C@@H]2[C@H](NC(=O)[C@H](N)c3ccccc3)C(=O)N2[C@H]1C(=O)O [AMPICILLIN] | 6.25 µg/mL |  | 
